Experimental data: BindingDB's records for doi:10.1111/cbdd.12887 (Josip Juraj Strossmayer University of Osijek, 2017)

Molecular target: T1, Dipeptidyl peptidase 3 (Homo sapiens, UniProt Q9NY33)
T1 sequence (Q9NY33 whole entry): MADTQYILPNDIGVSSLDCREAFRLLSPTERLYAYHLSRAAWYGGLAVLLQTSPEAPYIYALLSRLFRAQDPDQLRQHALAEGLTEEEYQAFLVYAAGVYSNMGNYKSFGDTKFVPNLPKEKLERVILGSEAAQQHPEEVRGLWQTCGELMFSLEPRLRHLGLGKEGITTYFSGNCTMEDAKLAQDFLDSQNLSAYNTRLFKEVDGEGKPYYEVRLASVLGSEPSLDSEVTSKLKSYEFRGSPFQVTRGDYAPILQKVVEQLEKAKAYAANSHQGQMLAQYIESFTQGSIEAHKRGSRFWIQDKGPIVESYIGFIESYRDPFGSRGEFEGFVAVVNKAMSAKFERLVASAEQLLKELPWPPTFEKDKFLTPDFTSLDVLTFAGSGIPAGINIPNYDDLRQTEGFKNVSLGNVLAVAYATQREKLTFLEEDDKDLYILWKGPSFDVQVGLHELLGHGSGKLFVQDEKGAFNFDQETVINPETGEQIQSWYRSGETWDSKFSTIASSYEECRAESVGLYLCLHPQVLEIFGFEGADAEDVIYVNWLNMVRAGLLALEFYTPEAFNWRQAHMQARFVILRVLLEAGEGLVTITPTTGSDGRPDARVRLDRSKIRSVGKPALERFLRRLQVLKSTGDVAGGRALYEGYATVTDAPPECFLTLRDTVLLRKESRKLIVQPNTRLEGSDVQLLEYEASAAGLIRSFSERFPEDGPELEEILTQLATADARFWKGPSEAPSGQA
Assay: DPP III Enzyme Activity Assay
Settings: pH 7.4; 37 °C
Experimental: The inhibitory activity of flavonoids toward human DPP III was assayed in a 50 mM Tris-HCl buffer, pH 7.4. In brief, recombinant human DPP III (0.29 nM) was preincubated with increasing concentrations of flavonoid first for 1 min at 25°C and then for 3 min at 37°C. The enzymatic reaction was started with Arg-Arg-NA (40 μM) as a substrate, and after the 15 min incubation at 37°C in a water bath, the reaction was stopped and the absorbance was measured using the spectrophotometric method described above[Abramić et al., Biol. Chem. Hoppe-Seyler., 369:29]. The stock solutions of flavonoids were prepared daily in dimethyl sulfoxide (DMSO, Sigma-Aldrich).

| SMILES | IC50 [µM] |
| --- | --- |
| O=c1c(O)c(-c2ccc(O)cc2)oc2cc(O)cc(O)c12 | 32.9 |
| O=c1c(O)c(-c2ccc(O)cc2O)oc2cc(O)cc(O)c12 [2-(2,4-dihydroxyphenyl)-3,5,7-trihydroxychromen-4-one] | 85 |
| O=c1c(O)c(-c2ccc(O)c(O)c2)oc2cc(O)cc(O)c12 [2-(3,4-dihydroxyphenyl)-3,5,7-trihydroxy-chromone;hydrate] | 74.1 |
| O=c1c(O)c(-c2ccc(O)c(O)c2)oc2cc(O)ccc12 [2-(3,4-dihydroxyphenyl)-3,7-dihydroxy-chromen-4-one] | 24.9 |
| O=c1cc(-c2ccc(O)c(O)c2)oc2cc(O)cc(O)c12 [2-(3,4-dihydroxyphenyl)-5,7-dihydroxy-4H-chromen-4-one] | 22 |
| O=c1c(O)c(-c2ccccc2)oc2ccc(O)cc12 [3,6-dihydroxy-2-phenyl-4H-chromen-4-one] | 56.4 |
| O=c1c(O)c(-c2ccccc2)oc2cc(O)ccc12 [3,7-dihydroxy-2-phenyl-4H-chromen-4-one] | 98 |
| O=c1c(O)c(-c2ccccc2)oc2ccccc12 [3-hydroxy-2-phenyl-4H-chromen-4-one] | 188 |
| O=c1cc(-c2ccccc2)oc2cc(O)cc(O)c12 [5,7-dihydroxy-2-phenyl-4H-chromen-4-one] | 123 |
| O=c1cc(-c2ccccc2)oc2ccc(O)cc12 [6-hydroxy-2-phenyl-4H-chromen-4-one] | 82.2 |
| O=C1C[C@@H](c2ccccc2)Oc2ccccc21 [Flavanone] | 437 |
| O=c1cc(-c2ccc(O)cc2)oc2cc(O)cc(O)c12 [Naringenin, 18] | 54 |
| O=c1c(-c2ccc(O)cc2)coc2cc(O)cc(O)c12 [Prunetol] | 36.6 |
| O=c1cc(-c2ccccc2)oc2ccccc12 [flavone] | 293 |
| O=c1c(O)c(-c2ccccc2)oc2cc(O)cc(O)c12 [norizalpinin] | 23.4 |
